Here are results for six molecules from US5567734A, “Phenyl-substituted alkylcarboguanidides carrying perfluoroalkyl groups, a process for their preparation, their use as a medicament or a diagnostic agent, and a medicament containing them” (priority 1994, dated 1996).

Where a name gives a salt, the structure may show the parent alone.

Data set [1] concerns the target T1, Na^+ /H^+ exchanger of rabbit erythrocytes (Oryctolagus cuniculus, UniProt P23791).
T1 construct: endogenous in cells; host or cells: erythrocytes in heparinised blood of cholesterol-fed New Zealand White rabbits (Ivanovas)
In words: Inhibition of the Na^+ /H^+ exchanger of rabbit erythrocytes (Na^+ influx by flame photometry). It counts as cell-based, rabbit (New Zealand White). To be noted: pH 7.4, 37° C., hyperosmolar salt/sucrose medium, cholesterol-fed rabbits, read-out: IC 50, Na^+ /H^+ -exchanger inhibition. The source says: Inhibition of the Na^+ /H^+ exchanger of rabbit erythrocytes:
New Zealand White rabbits (Ivanovas) were given a standard diet containing 2% cholesterol for 6 weeks in order to activate Na^+ /H^+ exchange and thus render it possible to determine the Na^+ influx into the erythrocytes via Na^+ /H^+ exchange by flame photometry. The blood was removed from the aural arteries and rendered incoagulable using 25 IU/ml potassium heparin. A portion of each sample was used for determining, in duplicate, the hematocrit by centrifugation. Aliquots of in each case 100 μl were used for measuring the initial content of Na^+ in the erythrocytes.
In order to determine the amiloride-sensitive sodium influx, 100 μl of each blood sample were incubated, at pH 7.4 and 37° C., in in each case 5 ml of a hyperosmolar salt/sucrose medium (mmol/l:140 NaCl, 3 KCl, 150 sucrose, 0.1 ouabain, 20 tris(hydroxymethyl)aminomethane). After that, the erythrocytes were washed three times with ice-cold MgCl2 /ouabain solution (mmol/l: 112 MgCl2, 0.1 ouabain), and haemolyzed in 2.0 ml of distilled water. The intracellular content of sodium was determined by flame photometry.
The net influx of Na^+ was calculated from the difference between the initial sodium values and the sodium content of the erythrocytes after incubation. The amiloride-inhibitable sodium influx was given by the difference in the sodium content of the erythrocytes after incubation with and without 3×10^-4 mol/l amiloride. The same procedure was employed for the compounds according to the invention.

The subject of data set [2] is disturbances of cardiac rhythm. To be noted: literature; cited from earlier work.
Data set [3] has as its system rat hearts. The following applies: isolated rat hearts; cited from earlier work.

T1 sequence (P23791 whole entry): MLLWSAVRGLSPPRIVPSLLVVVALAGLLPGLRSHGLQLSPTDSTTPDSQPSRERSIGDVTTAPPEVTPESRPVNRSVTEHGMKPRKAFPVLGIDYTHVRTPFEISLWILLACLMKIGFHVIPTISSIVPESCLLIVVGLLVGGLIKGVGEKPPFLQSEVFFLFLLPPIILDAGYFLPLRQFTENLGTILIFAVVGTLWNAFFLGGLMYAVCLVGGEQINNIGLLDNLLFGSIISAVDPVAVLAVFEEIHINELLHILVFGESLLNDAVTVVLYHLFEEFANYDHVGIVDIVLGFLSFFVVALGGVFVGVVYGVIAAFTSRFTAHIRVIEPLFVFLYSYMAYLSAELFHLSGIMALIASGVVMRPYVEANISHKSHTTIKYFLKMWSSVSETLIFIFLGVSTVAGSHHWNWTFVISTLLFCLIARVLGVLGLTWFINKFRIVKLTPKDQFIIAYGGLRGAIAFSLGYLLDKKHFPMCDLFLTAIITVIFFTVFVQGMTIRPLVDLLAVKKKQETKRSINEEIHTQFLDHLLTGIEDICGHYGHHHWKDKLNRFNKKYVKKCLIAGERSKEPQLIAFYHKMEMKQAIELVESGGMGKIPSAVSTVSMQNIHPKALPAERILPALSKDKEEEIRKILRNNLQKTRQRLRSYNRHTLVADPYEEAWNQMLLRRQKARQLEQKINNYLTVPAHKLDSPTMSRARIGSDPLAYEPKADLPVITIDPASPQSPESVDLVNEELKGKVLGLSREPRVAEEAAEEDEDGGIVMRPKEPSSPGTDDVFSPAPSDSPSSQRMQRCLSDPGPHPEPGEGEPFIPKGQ

`CC(Cc1cccc(C(F)(F)F)c1)C(=O)N=C(N)N` (racemic) [Example 5, 2-Methyl-3-(3-trifluoromethylphenyl)propionoguanidide hydrochloride]: in data set [1], the IC50 was 0.05 µM.

Take `NC(N)=NC(=O)CCc1cccc(C(F)(F)F)c1` [Example 1, 3-(3-Trifluoromethylphenyl)propionoguanidide]: in data set [1], the IC50 is 0.6 µM.

Regarding `NC(N)=NC(=O)CCc1ccccc1C(F)(F)F` [Example 2, 3-(2-Trifluoromethylphenyl)propionoguanidide], the IC50 in data set [1] came to 0.5 µM.

As for `NC(N)=NC(=O)CCc1cccc(OC(F)(F)F)c1` [Example 3, 3-(3-Trifluoromethoxyphenyl)propionoguanidide hydrochloride], the IC50 in data set [1] was 0.7 µM.

For the molecule `N=C(N)NC(=O)c1nc(Cl)c(N)nc1N` [amiloride], in data set [2], the antiarrhythmic effect entry is on record as “only weakly expressed”; the “side effects when treating disturbances of cardiac rhythm” value is “hypotensive and saluretic effects”. The “suppression of artificially induced ventricular fibrillation” value in data set [3] is on record as “completely suppress”.

Take `CCN(c1nc(N)c(C(=O)NC(=N)N)nc1Cl)C(C)C` [ethylisopropyl amiloride, Ethylisopropyl amiloride]: the “potency relative to amiloride, ventricular fibrillation” value in data set [3] is “even more potent than amiloride”.
